Source: ChEMBL document CHEMBL4433214, “Investigation around the Oxadiazole Core in the Discovery of a New Chemotype of Potent and Selective FXR Antagonists” (ACS Med Chem Lett, 2019)
Activity calls are given as the source filed them. The rule behind the calls is not given here.

Experiments:
[1] = Half life in rat liver microsomes at 1 uM incubated for 2 hrs by LC-MS/MS analysis
[2] = target: T1, Bile acid receptor (Homo sapiens) (UniProt Q96RI1); test: Antagonist activity at human FXR in HepG2 cells assessed as reversal of CDCA-induced increase in PEPCK mRNA expression level at 0.1 to 1 uM dosed after 24 hrs starvation followed by CDCA addition and measured after 18 hrs by RT-PCR analysis
T1 sequence (whole entry): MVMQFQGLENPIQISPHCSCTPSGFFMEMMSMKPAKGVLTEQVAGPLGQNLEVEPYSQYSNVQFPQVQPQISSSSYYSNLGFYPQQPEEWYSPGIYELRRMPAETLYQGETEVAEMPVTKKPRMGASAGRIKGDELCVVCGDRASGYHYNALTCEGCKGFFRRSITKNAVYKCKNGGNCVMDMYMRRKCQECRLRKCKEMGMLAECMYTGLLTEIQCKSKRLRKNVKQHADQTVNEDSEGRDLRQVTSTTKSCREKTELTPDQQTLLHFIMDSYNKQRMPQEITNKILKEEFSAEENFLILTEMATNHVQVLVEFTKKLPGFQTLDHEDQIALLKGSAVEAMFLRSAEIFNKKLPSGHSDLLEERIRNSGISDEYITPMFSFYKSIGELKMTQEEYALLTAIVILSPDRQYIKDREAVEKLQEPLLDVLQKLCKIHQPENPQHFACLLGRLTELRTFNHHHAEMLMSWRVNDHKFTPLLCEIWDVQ

[3] = target: T1, Bile acid receptor (Homo sapiens); test: Antagonist activity at human FXR in HepG2 cells assessed as reversal of CDCA-induced increase in SHP mRNA expression level at 0.1 to 1 uM dosed after 24 hrs starvation followed by CDCA addition and measured after 18 hrs by RT-PCR analysis
[4] = target: T2, Nuclear receptor subfamily 1 group I member 2 (Homo sapiens, UniProt O75469); test: Antagonist activity at human PXR transfected in HepG2 at 5 uM in presence of PXR agonist rifaximin by luciferase reporter assay; type: cell-based; conditions: hepg2, 5 µM
T2 sequence (O75469 whole entry): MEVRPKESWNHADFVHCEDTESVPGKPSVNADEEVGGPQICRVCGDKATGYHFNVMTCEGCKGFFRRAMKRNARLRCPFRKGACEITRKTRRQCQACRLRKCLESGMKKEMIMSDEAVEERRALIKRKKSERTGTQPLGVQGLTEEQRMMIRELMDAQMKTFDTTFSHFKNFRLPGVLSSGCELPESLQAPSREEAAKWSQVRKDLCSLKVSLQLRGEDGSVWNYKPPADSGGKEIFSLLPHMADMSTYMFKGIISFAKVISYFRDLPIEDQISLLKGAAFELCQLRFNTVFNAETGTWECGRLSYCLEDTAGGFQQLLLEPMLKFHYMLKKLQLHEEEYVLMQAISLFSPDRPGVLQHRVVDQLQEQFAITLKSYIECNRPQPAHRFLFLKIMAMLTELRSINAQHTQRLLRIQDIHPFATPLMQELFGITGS

[5] = target: T3, Peroxisome proliferator-activated receptor gamma (Homo sapiens) (UniProt P37231); test: Antagonist activity at human PPARgamma transfected in HepG2 at 5 uM in presence of PPARgamma agonist rosiglitazone by luciferase reporter assay; type: cell-based
T3 sequence (whole entry): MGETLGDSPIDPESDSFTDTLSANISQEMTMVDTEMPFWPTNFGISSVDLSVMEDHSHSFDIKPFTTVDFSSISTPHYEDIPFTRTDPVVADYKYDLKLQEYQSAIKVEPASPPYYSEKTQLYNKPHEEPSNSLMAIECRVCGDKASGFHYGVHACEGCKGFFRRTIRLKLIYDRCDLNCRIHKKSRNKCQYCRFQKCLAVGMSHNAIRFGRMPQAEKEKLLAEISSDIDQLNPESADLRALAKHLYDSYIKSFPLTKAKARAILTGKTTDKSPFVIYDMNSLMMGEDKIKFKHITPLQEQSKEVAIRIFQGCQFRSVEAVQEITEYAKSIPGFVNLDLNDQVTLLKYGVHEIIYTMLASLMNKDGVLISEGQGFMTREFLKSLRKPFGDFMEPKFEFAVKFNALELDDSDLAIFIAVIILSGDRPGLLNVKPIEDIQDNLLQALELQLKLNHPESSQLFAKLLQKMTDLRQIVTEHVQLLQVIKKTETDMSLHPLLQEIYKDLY

[6] = target: T1, Bile acid receptor (Homo sapiens); test: Antagonist activity at human FXR in HepG2 cells assessed as reversal of CDCA-induced increase in OSTalpha mRNA expression level at 0.1 to 1 uM dosed after 24 hrs starvation followed by CDCA addition and measured after 18 hrs by RT-PCR analysis
[7] = target: T1, Bile acid receptor (Homo sapiens); test: Transactivation of human FXR transfected in HepG2 cells at 10 uM by luciferase reporter assay; type: cell-based
[8] = Metabolic stability in rat liver microsomes assessed as parent compound remaining at 1 uM measured after 40 mins by LC-MS/MS analysis
[9] = target: T4, Oxysterols receptor LXR-beta (Homo sapiens) (UniProt P55055); test: Antagonist activity at human LXRbeta transfected in HepG2 at 5 uM in presence of LXRbeta agonist GW3965 by luciferase reporter assay; type: cell-based
T4 sequence (whole entry): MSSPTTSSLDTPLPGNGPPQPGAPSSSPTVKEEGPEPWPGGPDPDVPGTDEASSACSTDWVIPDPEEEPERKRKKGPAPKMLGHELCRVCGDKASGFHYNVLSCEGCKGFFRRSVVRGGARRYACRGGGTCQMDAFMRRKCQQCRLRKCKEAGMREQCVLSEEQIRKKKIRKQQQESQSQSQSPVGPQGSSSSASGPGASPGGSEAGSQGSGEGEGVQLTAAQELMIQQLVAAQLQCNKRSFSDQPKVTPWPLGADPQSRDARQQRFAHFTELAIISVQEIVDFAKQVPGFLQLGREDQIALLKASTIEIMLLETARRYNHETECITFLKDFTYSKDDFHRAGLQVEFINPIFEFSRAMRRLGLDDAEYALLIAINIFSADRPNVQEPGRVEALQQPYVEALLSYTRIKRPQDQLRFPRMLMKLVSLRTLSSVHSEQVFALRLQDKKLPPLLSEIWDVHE

[10] = target: T1, Bile acid receptor (Homo sapiens); test: Antagonist activity at human FXR transfected in HepG2 cells assessed as inhibition of CDCA-induced receptor transactivation at 10 uM by luciferase reporter assay relative to control; type: cell-based; parameters: scale not given: the % may be the effect or the level left
[11] = target: T1, Bile acid receptor (Homo sapiens); test: Antagonist activity at human FXR assessed as reduction in CDCA-induced FXR-SRC-1 recruitment at 500 to 1000 nM incubated for 30 mins by alpha screen assay
[12] = target: T5, Bile acid receptor (Homo sapiens, UniProt Q96RI1); test: Antagonist activity at human FXR transfected in HepG2 cells assessed as inhibition of CDCA-induced receptor transactivation by luciferase reporter assay; type: cell-based
T5 sequence (Q96RI1 whole entry): T1 sequence (whole entry)

[13] = target: T3, Peroxisome proliferator-activated receptor gamma (Homo sapiens); test: Agonist activity at human PPARgamma transfected in HepG2 at 10 uM by luciferase reporter assay; type: cell-based
[14] = target: T1, Bile acid receptor (Homo sapiens); test: Antagonist activity at human FXR in HepG2 cells assessed as reversal of CDCA-induced increase in […] mRNA expression level at 0.1 to 1 uM dosed after 24 hrs starvation followed by CDCA addition and measured after 18 hrs by RT-PCR analysis

c1ccc2cc(-c3noc(C4CCNCC4)n3)ccc2c1
half-life at 1 µM [1]: 1.86 h | Activity [2]: Active | Activity [3]: Active | Activity [4]: Not Active | Activity [5]: inactive | Activity [6]: Active | Activity [7]: inactive | remaining at 40 min, 1 µM [8]: 76.2% | Activity [9]: inactive | Activity [10]: 80% | inhibition [11]: Active | IC50 [12]: 580 nM | Activity [13]: inactive | Activity [14]: Active
